According to PMC2994877, “A Full Pharmacological Analysis of the Three Turkey β-Adrenoceptors and Comparison with the Human β-Adrenoceptors” (PLoS ONE, 2010):
Where two headings read alike, the source gives them in different places.

Experiments:
Human β1-adrenoceptor = target: Human β1-adrenoceptor; parameters: method as in PMID 15655528, PMID 20590599; conditions: Human β1, given for comparison; ref 25 and 30; cited from earlier work
Human β3-adrenoceptor = conditions: Human β3, given for comparison; ref 25 and 30; cited from earlier work
Human β2-adrenoceptor = target: Human β2-adrenoceptor; parameters: method as in PMID 15655528, PMID 20590599; conditions: Human β2, given for comparison; ref 25 and 30; cited from earlier work
[1] = target: T1, turkey β3C-adrenoceptor (tβ3C) (Meleagris gallopavo, UniProt A0A803YLI8); test: 3H-CGP12177 whole cell binding, CHO tβ3C cells
T1 sequence (A0A803YLI8 entry or part of it): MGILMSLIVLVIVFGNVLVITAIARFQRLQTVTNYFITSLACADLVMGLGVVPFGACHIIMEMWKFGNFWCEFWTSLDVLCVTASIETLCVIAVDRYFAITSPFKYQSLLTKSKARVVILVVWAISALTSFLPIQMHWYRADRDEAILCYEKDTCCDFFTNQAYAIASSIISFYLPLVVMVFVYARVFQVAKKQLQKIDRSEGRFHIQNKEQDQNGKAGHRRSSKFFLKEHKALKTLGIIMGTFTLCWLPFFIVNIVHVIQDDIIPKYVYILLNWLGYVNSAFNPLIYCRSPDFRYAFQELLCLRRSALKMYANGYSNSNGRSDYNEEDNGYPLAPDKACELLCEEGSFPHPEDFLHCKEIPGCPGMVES

[2] = target: T2, turkey β4C-adrenoceptor (tβ4C) (Meleagris gallopavo, UniProt P43141); test: cell-based; assay type: cell-based; conditions: for % isop max: CRE-SPAP, % of 10 µM isoprenaline maximum
T2 construct: expressed in transfected cells
T2 sequence (P43141 whole entry): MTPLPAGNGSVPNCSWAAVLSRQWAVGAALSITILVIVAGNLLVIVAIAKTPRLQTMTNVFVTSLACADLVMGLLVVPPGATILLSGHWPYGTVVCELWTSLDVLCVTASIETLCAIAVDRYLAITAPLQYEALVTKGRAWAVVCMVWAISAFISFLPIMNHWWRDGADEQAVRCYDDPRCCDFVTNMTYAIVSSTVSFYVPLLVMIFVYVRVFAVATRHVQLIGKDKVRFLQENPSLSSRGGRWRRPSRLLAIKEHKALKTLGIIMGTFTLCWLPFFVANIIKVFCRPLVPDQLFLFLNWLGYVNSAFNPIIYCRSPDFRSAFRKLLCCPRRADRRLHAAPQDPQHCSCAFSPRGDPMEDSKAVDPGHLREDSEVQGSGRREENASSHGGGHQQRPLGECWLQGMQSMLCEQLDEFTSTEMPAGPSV

[3] = target: T2, turkey β4C-adrenoceptor (tβ4C); test: cell-based; assay type: binding
[4] = target: T1, turkey β3C-adrenoceptor (tβ3C); test: CRE-SPAP production, CHO tβ3C cells; assay type: cell-based; conditions: for Emax: read-out: % isop max
[5] = target: T2, turkey β4C-adrenoceptor (tβ4C); test: 3H-cAMP accumulation, CHO tβ4C cells; assay type: cell-based; conditions: for % isop max: 3H-cAMP, overall response as % of 10 µM isoprenaline; for % site 1: % of response occurring via site 1, tβ4C
[6] = tested on: parent CHO CRE-SPAP cells; test: agonist response in parent CHO CRE-SPAP cells; assay type: cell-based
Text: The second piece of pharmacological evidence for more than one conformation is the concentrations of antagonists required to inhibit the CGP12177-stimulatory response. […] This is similar to observations at the β1-adrenoceptor in rodents and mammals [6]–[7] [9] [11]. […] There was no response to any ligands, including CGP12177 in the parent CHO CRE-SPAP cells and thus the CGP12177 agonist response was not occurring at a different receptor natively expressed in the cells.

parent CHO cells [7] = test: 3H-cAMP accumulation, parent CHO cells; conditions: parent CHO cells without transfected receptor
[8] = target: T1, turkey β3C-adrenoceptor (tβ3C); test: cell-based
[9] = target: T1, turkey β3C-adrenoceptor (tβ3C)
parent CHO cells [10] = test: 3H-CGP12177 binding, parent CHO cells; conditions: parent CHO cells without transfected receptor
Description: Cells were grown to confluence in white-sided tissue culture treated 96-well view plates. ^3H-CGP12177 whole cell binding was performed as previously described. […] For competition binding, the media was removed from each well, 100 µl of serum-free media containing the competing ligand at twice the final required concentration was added to each well followed immediately by a 100 µl of a fixed concentration of ^3H-CGP12177 (1∶2 dilution in well, final well concentrations of 1.24 nM to 12.10 nM). The cells were incubated for 2 hours at 37°C, 5% CO2 humidified atmosphere. For all plates, the cells were washed twice by the addition and removal of 200 µl 4°C phosphate buffered saline. 100 µl Microscint 20 was added to each well, a white sticky base applied to the underside and a sealant top applied to the top of the plate. The plates were left at room temperature overnight in the dark and the plates counted on a Topcount at 21°C for 2 minutes per well.

[11] = CRE-SPAP production, CHO tβ4C cells, read-out: Log EC50 (converted)
[12] = competition with 3H-CGP12177, whole cells, CHO tβ4C, given as log KD, mean ± s.e.m., read-out: Log KD (converted)
[13] = competition with 3H-CGP12177, whole cells, CHO tβ3C, given as log KD, mean ± s.e.m., read-out: Log KD (converted)

Row | Compound | Log KD (Human β1-adrenoceptor) | Log KD (Human β3-adrenoceptor) | Log KD (Human β2-adrenoceptor) | Kd [1] | % isop max ([2]; CHO tβ4C cells) | Kd [3, 12] | EC50 [4] | Emax [4] | other results
1 | CNC[C@H](O)c1ccc(O)c(O)c1 [Adrenaline] | −5.15 | −4.70 | −6.13 | 1550 nM | 99.6±2.7% | 1700 nM | 63.1 nM | 106 ± 2.7% | EC50 [2, 11]: 191 nM
2 | C[C@H](Cc1ccc(OCC(=O)O)cc1)NC[C@H](O)c1cccc(Cl)c1 [BRL37344] | −5.19 | −6.45 | −6.51 | – | 97.1±3.0% | – | – | – | Log KD ([1]; competition with 3H-CGP12177, whole cells, CHO tβ3C, given as log KD, mean ± s.e.m.): −6.28±0.06; Log EC50 ([2]; CRE-SPAP production, CHO tβ4C cells): −7.15±0.07; Log KD ([3]; competition with 3H-CGP12177, whole cells, CHO tβ4C, given as log KD, mean ± s.e.m.): −5.89±0.10; Log EC50 ([4]; CRE-SPAP production, CHO tβ3C cells): −7.67±0.04; % isop max ([4]; CRE-SPAP, % of 10 µM isoprenaline maximum, CHO tβ3C cells): 88.5±4.2%
3 | CC(C)(C)NCC(O)COc1cccc2[nH]c(=O)[nH]c12 (stereo not shown) [CGP12177] | – | – | – | – | 53.4±2.2% | – | – | – | % isop max ([5]; tβ4C): 17.4±0.7%; % site 1 [5]: 41.3±7.2%; agonist response [6]: no response
4 | C=C[C@@]1(C)CC(=O)[C@]2(O)[C@@]3(C)[C@@H](O)CCC(C)(C)[C@@H]3[C@H](O)[C@H](OC(C)=O)[C@@]2(C)O1 [forskolin] | – | – | – | – | – | – | – | – | 3H-cAMP accumulation response (parent CHO cells [7]): 21.5±2.2 fold over basal
5 | NC[C@H](O)c1ccc(O)c(O)c1 [Noradrenaline] | −5.74 | −5.53 | −5.41 | 11500 nM | 102.3±2.5% | 501 nM | 417 nM | 102 ± 3% | EC50 [2, 11]: 81.3 nM
6 | CC(C)(Cc1c[nH]c2ccccc12)NCC(O)COc1ccccc1C#N (stereo not shown) [Bucindolol] | −9.31 | −8.04 | −9.99 | 0.191 nM | – | 0.389 nM | – | – | –
7 | CC(C)(C)NCC(O)c1cc(Cl)c(N)c(Cl)c1 (stereo not shown) [Clenbuterol] | −6.62 | −5.35 | −7.90 | 41.7 nM | 97.2±1.9% | – | 0.525 nM | 97.8 ± 4.4% | EC50 [2]: 40.7 nM; Kd [3]: 363 nM
8 | CC(CCc1ccc(O)cc1)NCCc1ccc(O)c(O)c1 (stereo not shown) [Dobutamine] | −5.23 | −5.09 | −5.84 | – | 110.4±2.4% | 1000 nM | – | 101 ± 3.7% | Kd [1, 13]: 2690 nM; EC50 [2, 11]: 158 nM; EC50 ([4]; CRE-SPAP production, CHO tβ3C cells, read-out: Log EC50 (converted)): 427 nM
9 | O=C(O)Cc1ccc(OCCNC[C@H](O)c2ccccc2)cc1 [ZD2079] | −4.21 | −4.59 | >−4 | – | – | > 100000 nM | – | – | Kd [1, 13]: > 100000 nM
10 | CC(C)(Cc1ccccc1)NCC(O)c1ccc(O)c(NS(C)(=O)=O)c1 (stereo not shown) [zinterol] | −5.96 | −6.27 | −8.04 | 24 nM | – | 158 nM | – | – | –
11 | CC(Cc1ccc(O)cc1)NCC(O)c1cc(O)cc(O)c1 (stereo not shown) [Fenoterol] | −5.04 | −5.39 | −7.03 | 204 nM | – | – | 0.832 nM | – | EC50 [2]: 8.51 nM; Kd [3]: 603 nM
12 | CC(C)(C)NC[C@H](O)COc1cccc2[nH]c(C#N)cc12 [S-Cyanopindolol] | – | −8.36 | – | 0.00427 nM | – | – | – | – | EC50 [8]: 0.0251 nM; Emax ([8]; read-out: % isop max): 4.6 ± 0.7%; shape of agonist concentration response ([9]; 3H-cAMP accumulation, tβ3C): one-component response; Log EC502 ([9]; 3H-cAMP accumulation, tβ3C, one-component response (same value as EC501)): −10.60±0.13; % site 1 ([9]; % of response occurring via site 1, tβ3C): 100%; shape of agonist concentration response ([5]; 3H-cAMP accumulation, tβ4C): two component response; % isop max ([5]; tβ4C): 16.4±2.7%; % site 1 [5]: 44.4±2.0%
13 | ^3H-CGP12177 | – | – | – | – | – | – | – | – | specific binding of 3H-CGP12177 (parent CHO cells [10]): no specific binding; Kd ([1]; read-out: KD of 3H-CGP12177, saturation binding, stable CHO tβ3C cell line): 0.29 ± 0.02 nM; Kd ([3]; read-out: KD of 3H-CGP12177, saturation binding, stable CHO tβ4C cell line): 0.58 ± 0.06 nM
